Data: US20150018305A1, “SIRTUIN INDUCER, TISSUE REPAIRING AGENT, HEPATOCYTE GROWTH FACTOR INDUCER, TISSUE HOMEOSTASIS MAINTENANCE AGENT, AND TLR4 AGONIST, HAVING HYALURONIC ACID FRAGMENT AS ACTIVE INGREDIENT” (HYALURONAN RESEARCH INSTITUTE, INC., priority 2012, published 2015)

Assays:
[1] = tested on: sirtuin enzymatic activity (sirt1 enzymatic activity); assay: Sirtuin enzymatic activity in cell solution of human epidermal keratinocytes, CycLex SIRT1/Sir2 Deacetylase Fluorometric Assay Kit (Test Example 2); type: cell-based; conditions: 10 ng/ml final concentration; cell crude extract
Experimental: Human epidermal keratinocytes were treated in the same manner as in Test Example 1, except that the final concentration of the hyaluronic acid fragment was 10 ng/ml, the size thereof being four sugar units (4mer), six sugar units (6mer), or 10 sugar units (10mer), while measuring the sirtuin enzymatic activity (sirt1 enzymatic activity) in the cell solution thereof. For purposes of comparison, 10 kDa or 900 kDa hyaluronic acid, and resveratrol, a known sirtuin activator, were likewise tested at 10 ng/ml final concentration. A human sirtuin recombinant protein (recombinant human sirt1) produced through genetic recombination techniques was used as a substance for verification of the measurement system. Sirtuin enzymatic activity in the cell crude extract was measured with the CycLex SIRT1/Sir2 Deacetylase Fluorometric Assay Kit (trade name of CycLex), following the protocol of the kit.

[2] = tested on: Hepatocyte growth factor expression (mRNA); assay: Induction of hepatocyte growth factor in human epidermal keratinocytes, DNA microarray (Test Example 13); type: cell-based; conditions: 10 ng/ml, 24 hours; Cy5, DNA microarray
Experimental: Human epidermal keratinocytes (normal human keratinocytes from a person) were cultured respectively in a culture medium containing 10 ng/ml of four-unit hyaluronic acid fragment (4mer), and a culture medium containing no hyaluronic acid fragments (untreated), for 24 hours. For the culture medium, a serum-free medium for use with normal human keratinocytes, made by DS Pharma Biomedical Co. Ltd. was employed. After culture, the cells were recovered and analyzed with a DNA microarray (DNA chip).

[3] = tested on: activated (phosphorylated) NF-kappaB; assay: NF-kappaB expression in TNF-α treated human large intestine epithelial cells, fluorescent staining (Test Example 9); type: cell-based; conditions: TNF-α treatment, 10 ng/ml test substance, 24 hours
Experimental: It was investigated whether the expression of NF-kappaB in human large intestine epithelial cells (HT29 cells) when subjected to TNF-α treatment is affected by treatment with the hyaluronic acid fragment. NF-kappaB is a transcription factor involved in inflammation, tissue destruction, and the like.
DMEM culture medium (made by Wako Pure Chemical Industries, Ltd.) to which TNF-α and the hyaluronic acid fragment were added, and DMEM culture medium from which these were omitted, were prepared, and human large intestine epithelial cells were treated for 24 hours in these culture media. Thereafter, the cells were stained with an antibody that recognizes activated (phosphorylated) NF-kappaB.
The vertical axis of the graph indicates fluorescent intensity. It may be appreciated that, in cells to which four- to eight-unit hyaluronic acid fragments were added, the expression level of NF-kappaB is reduced in statistically significant fashion.

[4] = tested on: rat bone marrow mesenchymal stem cells; assay: Hydrogen peroxide induced aging of rat bone marrow mesenchymal stem cells, PI dead cell count (Test Example 21); type: cell-based; conditions: 2 hours
Experimental: It was investigated whether the process, in which rat bone marrow mesenchymal stem cells experienced cellular aging (increased cell death) when treated with hydrogen peroxide, is affected by treatment with the hyaluronic acid fragment. Specifically, the following test was performed.
Using a DMEM culture medium (made by Wako Pure Chemical Industries, Ltd.), rat bone marrow mesenchymal stem cells were cultured by usual methods at 37° C. under 5% CO2. Hydrogen peroxide was added to the culture medium to a final concentration of 1 μM to bring about stimulation for a 15-minute period, and the culture broth was then transferred to DMEM culture medium containing no added hyaluronic acid fragments; to DMEM culture medium containing hyaluronic acid fragment (L3mer) added to a final concentration of 100 ng/ml; or to DMEM culture medium containing the hyaluronic acid fragment (L3mer) plus TLR4/MD2 added to a final concentration of 10 μg/ml, and cultured for 2 hours.
After 2 hours had passed, PI ([…]), which emits red fluorescence upon uptake into dead cells, was added to the culture medium to a final concentration of 5 μg/ml, and after incubation for 15 minutes, the condition of appearance of dead cells was examined with a fluorescence microscope.

[5] = tested on: human neural stem cells (neurospheres); assay: Hydrogen peroxide induced aging of human neural stem cells, microscopy (Test Example 20); type: cell-based; conditions: 24 hours
Experimental: It was investigated whether the process, in which human neural stem cells (neurospheres) experienced cellular aging (vacuolar degeneration and hypertrophy) when treated with hydrogen peroxide, is affected by treatment with the hyaluronic acid fragment. Specifically, the following test was performed.
Human neural stem cells (neurospheres) (trade name Gibco Human Neural Stem Cells (H9-Derived) made by Gibco) were cultured in Neurobasal Media (trade name, made by Gibco) culture medium at 37° C. under 5% CO2. Hydrogen peroxide was added to the culture medium to a final concentration of 10 μM to bring about stimulation for a 15-minute period, and the culture broth was then transferred to Neurobasal Media culture medium (made by Gibco) containing no hyaluronic acid fragments; to the same culture medium containing hyaluronic acid fragment (L3mer) in a final concentration of 100 ng/ml; or to the same culture medium containing hyaluronic acid fragment (L3mer) plus TLR4/MD2 added to a final concentration of 10 μg/ml, and cultured for 24 hours.
After 24 hours, the cells were examined with an inverted microscope.

[6] = tested on: liver function; assay: Concanavalin A liver damage model, blood GOT and GPT (Test Example 15); type: in vivo; conditions: concanavalin A 20 mg/kg caudal vein, fragment oral, after 24 hours, 20-month old female Balb/c mice
Experimental: The effect of action of the hyaluronic acid fragment on the liver of aged […] was investigated. Specifically, 20-month old (aged) female Balb/c mice were administered through the caudal vein with concanavalin A (20 mg/kg of body weight) one time, as a liver damage model. Subsequent to administration of concanavalin A, hyaluronic acid fragment (4mer or L3mer) were administered orally, and the effect thereof was investigated. Impairment of liver function was evaluated after 24 hours, by drawing blood and measuring the GOT and GPT values in the blood.

[7] = tested on: human neural stem cells (neurospheres); assay: Action on human neural stem cells, Nestin/Tubulin double staining (Test Example 7); type: cell-based; conditions: 10 ng/ml, 12 days
Experimental: Human neural stem cells (neurospheres) (trade name Gibco Human Neural Stem Cells (H9-Derived) made by Gibco) were cultured in Neurobasal Media (trade name, made by Gibco) culture medium at 37° C. under 5% CO2, and the cells were recovered by trypsin treatment. The cells were then inoculated into a 96-well plate (100 μL per well) and cultured overnight. Following completion of culture, the culture broth from each well was transferred to Neurobasal Media (trade name, made by Gibco) culture medium to which no hyaluronic acid fragments were added, or to the same medium to which hyaluronic acid fragment (L3mer) had been added to a final concentration of 10 ng/ml, and cultured for 12 days
After 12 days had passed, the cells in each well were double-stained with anti human Nestin antibody and anti human Tubulin antibody. Nestin is a protein that is specifically expressed in neural stem cells, and is a neural stem cell marker. The stained cells were observed under a microscope (made by Nikon), taking photographs of cell morphology and stained images of cells.

[8] = 100 ng/ml plus TLR4/MD2 10 μg/ml

SMILES	sirtuin enzymatic activity (sirt1 enzymatic activity) compared with negative control [1]	Fluorescent intensity, Hepatocyte growth factor expression in keratinocytes (mRNA) [2]	expression level of NF-kappaB (fluorescent intensity) [3]	suppression of cell death with TLR4/MD2 added [4, 8]	hydrogen peroxide-induced cellular aging (increased cell death, dead cells per unit visual field) ([4]; hydrogen peroxide 1 μM, 100 ng/ml, PI staining)	suppression of cellular aging with TLR4/MD2 added [5, 8]	hydrogen peroxide-induced cellular aging (vacuolar degeneration and hypertrophy) ([5]; hydrogen peroxide 10 μM, 100 ng/ml)	impairment of liver function (GOT values in the blood) [6]	expression of Nestin and Tubulin [7]	process formation (morphology) [7]
CC(=O)N[C@H]1[C@H](O[C@H]2[C@H](O)[C@@H](O)[C@H](O[C@H]3[C@H](O)[C@@H](CO)OC(O)[C@@H]3NC(C)=O)O[C@@H]2C(=O)O)O[C@H](CO)[C@@H](O)[C@@H]1O[C@@H]1O[C@H](C(=O)O)[C@@H](O)[C@H](O)[C@H]1O (stereo partly shown) [4mer, GlcA(-GlcNAc-GlcA)1-GlcNAc]	approximately triple	200.40	inhibited to the greatest extent							
CC(=O)NC1C(O[C@@H]2OC(C(=O)O)[C@@H](O)C(O)C2O)[C@H](O)C(CO)O[C@H]1O[C@@H]1C(C(=O)O)O[C@@H](OCCCN=[N+]=[N-])C(O)C1O (stereo partly shown) [L3mer]				inhibited by addition of TLR4/MD2	suppressed	inhibited by addition of TLR4/MD2	suppressed	markedly better with the L3mer than with the 4mer	expression of both Nestin and Tubulin was confirmed	process formation was confirmed
